# Assay results as given in patent publication EP3064205A1, “Therapeutic use of isomeric forms of 2-(4-chlorophenyl)quinolin-4-yl)(piperidin-2-yl)methanol” (Glionova AB, priority 2015, dated 2016).
# Read-outs that look alike come from different tables or passages of the source.
# Assays:
# Assay in all cases: 3D clonogenic assay (PDX)
# Assay type in all cases: cell-based, human
# CXF 676 = conditions: CXF 676, Colorectal; for IC50: Homo sapiens
# Method: (§1) The anti-tumor efficacy of S1 in the patient-derived tumor xenograft (PDX) tumor panel was assessed, where the efficacy of S1 in PDX tumor panel in the 96-well format, in 10 concentrations in duplicate was performed. Colony formation of tumor cell suspensions in a soft-agar matrix was observed and quantified. The output is IC50 values and dose response-relationships based on number of colonies in control and treatment wells, as identified by an automated image analysis algorithm. Stock solution of S1 was prepared in 100% DMSO at 10 mM concentration (stored at -20°C) and reused for each experiment. Compound final test concentrations: Dilution series ½ i.e.: 50µM, 15, 5, 1.5, 0.5, 0.15, 0.05, 0.015, 0.005 and 0.0015.
# (§2) Tumor xenografts (also referred to as patient-derived tumor xenografts) were passaged as subcutaneous xenografts in NMRI nu/nu mice. Tumor xenograft were removed from mice under sterile conditions, mechanically disaggregated and subsequently incubated with an enzyme cocktail consisting of collagenase type IV (41 U/mL), DNase I (125 U/mL), hyaluronidase type III (100 U/mL) and dispase II (1.0 U/mL) in RPMI 1640 medium at 37°C for 60 - 120 minutes. Cells were passed through sieves of 100 µm and 40 µm mesh size and washed with RPMI 1640 medium. The percentage of viable cells was determined in a Neubauer-hemocytometer using trypan blue exclusion. Aliquots of the cells were frozen down, and stored in liquid nitrogen.
# (§3) The clonogenic assay test was carried out in 96 well plate format. For each test a frozen aliquot of tumor cells prepared from tumor xenografts was thawed and assay plates were prepared as follows: each test well contained 3 layers of equal volume, 2 layers of semi-solid medium (bottom and top layer), and one layer of medium supernatant, with or without test compound. The bottom layer consisted of 0.05 mL/well Iscove's Modified Dulbecco's Medium (Invitrogen), supplemented with 20% (v/v) fetal calf serum (Sigma), 0.01% (w/v) gentamicin (Invitrogen) and 0.75% (w/v) agar (BD Biosciences). Tumor cells were added to 0.05 mL of the same culture medium supplemented with 0.4% (w/v) agar and plated onto the bottom layer. After 24 h, test compounds were added after serial dilution in DMSO and transfer in cell culture medium, and left on the cells for the duration of the experiment (continuous exposure, 0.05 mL drug overlay). Every dish included six untreated control wells and drug-treated groups in duplicate at 10 concentrations. Cultures were incubated at 37 °C and 7.5% CO2 in a humidified atmosphere for 8 to 13 days and monitored closely for colony growth using an inverted microscope. Within this period, ex vivo tumor growth lead to the formation of colonies with a diameter of >50 µm. At the time of maximum colony formation, counts were performed with an automatic image analysis system. 24 h prior to evaluation, vital colonies were stained with a sterile aqueous solution of 2-(4-iodophenyl)-3-(4-nitrophenyl)-5-phenyltetrazolium chloride (1 mg/mL, 100 µL/well). Sigmoidal concentration-response curves were fitted to the data points obtained for each tumor model using 4 parameter non-linear curve fit (Oncotest Warehouse Software). IC50 values are reported as relative IC50 values, being the concentration of test compound that give a response (inhibition of colony formation/viability) half way between the top and bottom plateau of the sigmoidal concentration-response curve (inflection point of the curve), or as absolute IC50 values, being the concentration of test compound at the intersection of the concentration-response curves with T/C = 50%. For calculation of mean IC50 values the geometric mean was used. Results are presented as mean graph plots or heat maps (individual IC50 values relative to the geometric mean IC50 value) over all cell lines as tested.
# RXF 631 = conditions: RXF 631, Renal; for IC50: Homo sapiens
# Method: as §1, §2, §3
# PAXF 1872 = conditions: PAXF 1872, Pancreas; for IC50: Homo sapiens
# Method: as §1, §2, §3
# SXFS 1937 = conditions: SXFS 1937, Sarcoma Soft Tissue; for IC50: Homo sapiens
# Method: as §1, §2, §3
# PAXF 2053 = conditions: PAXF 2053, Pancreas; for IC50: Homo sapiens
# Method: as §1, §2, §3
# LXFA 1041 = conditions: LXFA 1041, Lung Adeno; for IC50: Homo sapiens
# Method: as §1, §2, §3
# OVXF 899 = conditions: OVXF 899, Ovarian; for IC50: Homo sapiens
# Method: as §1, §2, §3
# LXFL 1072 = conditions: LXFL 1072, Lung Large Cell; for IC50: Homo sapiens
# Method: as §1, §2, §3
# PAXF 2033 = conditions: PAXF 2033, Pancreas; for IC50: Homo sapiens
# Method: as §1, §2, §3
# MEXF 276 = conditions: MEXF 276, Melanoma; for IC50: Homo sapiens
# Method: as §1, §2, §3
# PXF 537 = conditions: PXF 537, Pleuramesothelioma; for IC50: Homo sapiens
# Method: as §1, §2, §3
# CXF 1783 = conditions: CXF 1783, Colorectal; for IC50: Homo sapiens
# Method: as §1, §2, §3
smiles,measurement,setting,value
"O[C@H](c1cc(-c2ccc(Cl)cc2)nc2ccccc12)[C@@H]1CCCCN1 [S1, (R)-(2-(4-chlorophenyl)quinolin-4-yl)((S)-piperidin-2-yl)methanol]",b (bottom plateau of concentration-effect curve),CXF 676,19
same,t (top plateau of concentration-effect curve),CXF 676,105
same,IC50,CXF 676; read-out: abs. IC50,8.92 µM
same,IC50,CXF 676; read-out: rel. IC50,8.78 µM
same,IC50,RXF 631; read-out: abs. IC50,24.6 µM
same,IC50,RXF 631; read-out: rel. IC50,28.1 µM
same,b (bottom plateau of concentration-effect curve),RXF 631,0
same,t (top plateau of concentration-effect curve),RXF 631,91
same,IC50,PAXF 1872; read-out: abs. IC50,9.3 µM
same,IC50,PAXF 1872; read-out: rel. IC50,8.89 µM
same,b (bottom plateau of concentration-effect curve),PAXF 1872,42
same,t (top plateau of concentration-effect curve),PAXF 1872,89
same,IC50,SXFS 1937; read-out: abs. IC50,10.1 µM
same,IC50,SXFS 1937; read-out: rel. IC50,9.9 µM
same,b (bottom plateau of concentration-effect curve),SXFS 1937,18
same,t (top plateau of concentration-effect curve),SXFS 1937,120
same,IC50,PAXF 2053; read-out: abs. IC50,5.87 µM
same,IC50,PAXF 2053; read-out: rel. IC50,5.67 µM
same,b (bottom plateau of concentration-effect curve),PAXF 2053,18
same,t (top plateau of concentration-effect curve),PAXF 2053,101
same,IC50,LXFA 1041; read-out: abs. IC50,5.3 µM
same,IC50,LXFA 1041; read-out: rel. IC50,5.25 µM
same,b (bottom plateau of concentration-effect curve),LXFA 1041,10
same,t (top plateau of concentration-effect curve),LXFA 1041,95
same,IC50,OVXF 899; read-out: abs. IC50,6.38 µM
same,IC50,OVXF 899; read-out: rel. IC50,6.16 µM
same,b (bottom plateau of concentration-effect curve),OVXF 899,18
same,t (top plateau of concentration-effect curve),OVXF 899,100
same,IC50,LXFL 1072; read-out: abs. IC50,7.6 µM
same,IC50,LXFL 1072; read-out: rel. IC50,7.58 µM
same,b (bottom plateau of concentration-effect curve),LXFL 1072,0
same,t (top plateau of concentration-effect curve),LXFL 1072,101
same,IC50,PAXF 2033; read-out: abs. IC50,9.19 µM
same,IC50,PAXF 2033; read-out: rel. IC50,8.89 µM
same,b (bottom plateau of concentration-effect curve),PAXF 2033,27
same,t (top plateau of concentration-effect curve),PAXF 2033,110
same,IC50,MEXF 276; read-out: abs. IC50,4.73 µM
same,IC50,MEXF 276; read-out: rel. IC50,4.65 µM
same,b (bottom plateau of concentration-effect curve),MEXF 276,15
same,t (top plateau of concentration-effect curve),MEXF 276,95
same,IC50,PXF 537; read-out: abs. IC50,8.67 µM
same,IC50,PXF 537; read-out: rel. IC50,8.63 µM
same,b (bottom plateau of concentration-effect curve),PXF 537,24
same,t (top plateau of concentration-effect curve),PXF 537,80
same,b (bottom plateau of concentration-effect curve),CXF 1783,42
same,t (top plateau of concentration-effect curve),CXF 1783,100
same,IC50,CXF 1783; read-out: abs. IC50,9.26 µM
same,IC50,CXF 1783; read-out: rel. IC50,8.81 µM
